Data reported in article PMC6344480 (Nature Communications, 2019).

Biological target: T1, AsfvLIG (African swine fever virus BA71V, UniProt P35970)
T1 construct: gene LIG
Conditions: non-catalytic AsfvLIG:DNA complex; no Mg2+; bound in the adenylation domain near catalytic Lys151

T1 sequence (P35970 whole entry, looked up): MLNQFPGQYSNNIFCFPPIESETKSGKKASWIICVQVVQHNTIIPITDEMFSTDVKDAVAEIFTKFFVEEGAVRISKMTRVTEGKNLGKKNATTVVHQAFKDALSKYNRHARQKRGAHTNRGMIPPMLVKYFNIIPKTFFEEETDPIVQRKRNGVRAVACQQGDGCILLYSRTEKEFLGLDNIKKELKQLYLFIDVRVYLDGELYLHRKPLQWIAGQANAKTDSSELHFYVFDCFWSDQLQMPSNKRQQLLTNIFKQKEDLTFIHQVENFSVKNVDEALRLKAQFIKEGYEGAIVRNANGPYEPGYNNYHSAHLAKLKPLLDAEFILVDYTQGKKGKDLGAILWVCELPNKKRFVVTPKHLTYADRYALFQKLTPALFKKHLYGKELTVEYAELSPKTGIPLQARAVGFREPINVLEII

## Nc1ncnc2c1ncn2[C@@H]1O[C@H](COP(=O)(O)OP(=O)(O)OP(=O)(O)O)[C@@H](O)[C@H]1O [ATP]
  X-ray crystal structure (Se-SAD): the ATP is bound by the AD domain and stabilized by various interactions
